Source: PMC5641094, “A peptide antagonist of Prep1-p160 interaction improves ceramide-induced insulin resistance in skeletal muscle cells” (Oncotarget, 2017)
Ends that are not written are not given here. * marks the point of attachment. Biotin = O=C1N[C@H]2[C@H](CS[C@H]2CCCCC(=O)*)N1

What was measured:
Prep1 mRNA = assay: Real-time RT-PCR of Prep1 mRNA in L6 cells; type: cell-based, rat; conditions: preliminary data
Method: (§1) Figure 2 Effect of ceramides on Prep1 and p160 mRNA expression and of Prep1-p160 coprecipitation L6 cells were treated with C2cer (10μM) for 18h and Prep1 (A) or p160 (B) mRNA levels were analyzed by real-time RT-PCR analysis. Data were normalized by the amount of GAPDH mRNA, used as internal control. Bars represent the mean ± SD of three independent experiments, each performed in triplicate. (C) L6 cells were treated with cycloheximide (CHX) at 40μg/mL concentration for 18h and the lysates were analyzed by Western blot with anti-p160 and beta-actin. The autoradiograph shown is representative of three different experiments and subjected to densitometric analysis. (D) Protein lysates from L6 cells treated with C2cer as indicated, were immunoprecipitated with Prep1 antibody and immunoblotted with p160 or Prep1 antibodies. The autoradiograph shown is representative of three different experiments and subjected to densitometric analysis. Asterisks denote statistically significant differences (*p<0.05; **p<0.01).
Total cellular RNA was isolated from L6 cells by using the RNeasy kit (QIAGEN Sciences, Germany), according to manufacturer instructions. 1μg of cell RNA was reverse-transcribed using Superscript III Reverse Transcriptase (Life Technologies Carlsbad, CA, USA). PCR reactions were analyzed using IQTM SYBR Green Supermix (Bio-Rad, Hercules, CA). […]

[1] = test system: Prep1 and p160 protein levels in L6 cells; assay: Western blot of Prep1 and p160 protein levels in L6 cells; type: cell-based, rat; conditions: CHX 40μg/ml, 18h
Method: Figure 1 Effect of ceramides dose-response and time-course on Prep1 and p160 protein levels L6 skeletal muscle cells were treated with different concentration of C2cer (10μM and 100μM for 18h) (A) and for different time (10μM for 6h and 18h) (B). Protein lysates were analyzed by Western blot using antibodies for Prep1, p160 and for the beta-actin, as a loading control. Blots were detected by ECL and autoradiography. The autoradiographs are representative of four independent experiments. Asterisks denote statistically significant differences (*p<0.05; **p<0.01).
as §1
Figure 3 Design and in vitro effects of Prep1(54-72) peptide on Prep1/p160 association (A) Binding curves of Prep1(59-72) and Prep1(54-72) peptides to p160_20-160 by ELISA-like assays. Biotinylated peptides at several concentrations were added in triplicate to a 96-well plate coated with p160_20-160 (0.1μM). Experiments were performed at least twice and the average results fitted using GraphPad Prism. […] (B) Competition binding experiments. His6-tagged-p160_20-160 at 0.25μM was incubated with Prep1(59-72) and Prep1(54-72) at concentrations ranging between 0.001÷10μM and added to a 96-well plate coated with Prep1_45-155 (0.10μM). Results are the average of three independent experiments. (C) L6 cells were incubated with increasing concentrations of the fluorescein-conjugated peptide (FITC-Prep1(54-72)) and peptide uptake was detected by FACS analysis of fluorescein-labeled cells. Bars represent the mean ± SD of four independent experiments. (D) L6 muscle cells incubated with Prep1(54-72) were stimulated with C2cer (10μM) for 18h. Protein lysates were immunoprecipitated with Prep1 antibodies and analyzed by Western blot using antibodies for p160 or for Prep1. (E) An aliquot of the lysate was used to measure protein expression of Prep1 and p160 and the beta-actin used as loading control. The blots were detected by ECL and autoradiography. The autoradiograph is representative of three independent experiments. Asterisks denote statistically significant differences (*p<0.05; **p<0.01).
L6 rat skeletal muscle cells (ATCC, Manassas, VA, USA) were cultured in DMEM supplemented with 10% FBS and 1% penicillin/streptomycin solution at 37°C in a humidified 95% air and 5% CO2 atmosphere (all vol./vol.). […]
Total cell lysates were obtained and separated by SDS-PAGE. […] The protein concentrations in the cell lysates were measured using a Bio-Rad DC (detergent compatible) assay. […]

[2] = target: T1, p160_20-160/Prep1_45-155 binding (Homo sapiens, UniProt Q9BQG0); assay: ELISA-like competition of p160_20-160/Prep1_45-155 binding; conditions: His6-p160_20-160 0.25μM pre-incubated with peptide 0.001-10μM; plate coated with Prep1_45-155 (0.10μM); anti-His HRP; average of three experiments
T1 construct: pre-incubating the His6-tagged-p160_20-160 at 0.25μM with peptides; made in house
T1 sequence (Q9BQG0 20-160): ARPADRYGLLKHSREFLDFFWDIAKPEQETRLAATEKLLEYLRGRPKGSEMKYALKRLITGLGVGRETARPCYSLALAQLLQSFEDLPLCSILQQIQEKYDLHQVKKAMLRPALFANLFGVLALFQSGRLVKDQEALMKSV
Source text: To address the significance of the association between Prep1 and p160 mediated by C2cer, we generated a synthetic inhibitor of the Prep1/p160 interaction. […] The synthetic peptide covering such stretch of residues was therefore chosen to generate a potential inhibitor. […] Thus, we designed and chemically synthesized a peptide spanning residues 59-72, hereafter Prep1(59-72), which comprises the predicted α-helix and a short loop at the N-terminus (Supplementary Figure 2A, upper panel). We also designed and prepared an additional peptide with a slightly longer N-terminal end, named Prep1(54-72) (Supplementary Figure 2A, lower panel), to increase the probability of obtaining a molecule with helical features. […] In order to test the affinity of Prep1 synthetic peptides to p160 protein, ELISA-like experiments were developed where N-terminally biotinylated peptide variants were added to p160_20-160 – coated 96-well plates. As shown in Figure 3A either variants bound p160_20-160 domain in a dose-dependent and saturable manner. […]
(§2) Figure 3 Design and in vitro effects of Prep1(54-72) peptide on Prep1/p160 association (A) Binding curves of Prep1(59-72) and Prep1(54-72) peptides to p160_20-160 by ELISA-like assays. […] (C) L6 cells were incubated with increasing concentrations of the fluorescein-conjugated peptide (FITC-Prep1(54-72)) and peptide uptake was detected by FACS analysis of fluorescein-labeled cells. […] Protein lysates were immunoprecipitated with Prep1 antibodies and analyzed by Western blot using antibodies for p160 or for Prep1. […] The blots were detected by ECL and autoradiography. […]
ELISA experiments were performed using an integrated platform for High-Throughput Screening (Hamilton Robotics, Bonaduz, CH) comprising a fully equipped Starlet 8 channel liquid handler, a robotic arm, a washer and a multi-wavelength plate reader. […] In particular, several concentrations of biotinylated peptides at several concentrations were added to a plate coated with p160_20-160 (0.1μM) and binding was detected with streptavidin-HRP. […] The binding was detected by anti-His HRP-conjugated antibody. […]

p160_20-160 = target: T2, p160_20-160 (Homo sapiens, UniProt Q9BQG0); assay: ELISA-like direct binding of biotinylated Prep1 peptides to coated p160_20-160; conditions: N-terminally biotinylated peptide variants; plate coated with p160_20-160 (0.1μM); streptavidin-HRP; one-site binding fit; triplicate, performed at least twice
T2 construct: were added to a plate coated with p160_20-160 (0.1μM); His6; made in house
T2 sequence (Q9BQG0 20-160): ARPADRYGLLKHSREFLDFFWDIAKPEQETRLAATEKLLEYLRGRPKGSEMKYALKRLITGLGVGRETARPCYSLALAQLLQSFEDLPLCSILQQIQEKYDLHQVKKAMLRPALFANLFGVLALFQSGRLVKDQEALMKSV
Source text: To address the significance of the association between Prep1 and p160 mediated by C2cer, we generated a synthetic inhibitor of the Prep1/p160 interaction. […] The synthetic peptide covering such stretch of residues was therefore chosen to generate a potential inhibitor. […] Thus, we designed and chemically synthesized a peptide spanning residues 59-72, hereafter Prep1(59-72), which comprises the predicted α-helix and a short loop at the N-terminus (Supplementary Figure 2A, upper panel). […]
as §2
ELISA experiments were performed using an integrated platform for High-Throughput Screening (Hamilton Robotics, Bonaduz, CH) comprising a fully equipped Starlet 8 channel liquid handler, a robotic arm, a washer and a multi-wavelength plate reader. […] The binding was detected by anti-His HRP-conjugated antibody. […]

[3] = test system: IRS1 tyrosine phosphorylation; assay: IRS1 tyrosine phosphorylation, immunoprecipitation and Western blot; type: cell-based, rat; conditions: L6 cells, insulin 100nM
Method: (§3) Figure 4 Prep1(54-72) peptide restores the insulin signaling inhibited by C2cer and Prep1 L6 cells were stimulated with insulin (100nM) and incubated with Prep1(54-72) in presence of C2cer at 10μM for 18h (A-B) or stable transfection of Prep1 (C-D). Protein lysates were immunoprecipitated with specific IR or IRS1 antibodies and analyzed by Western blot using antibodies for phosphotyrosines (pY) and beta-actin as loading control. Blots were detected by ECL and autoradiography. The autoradiographs are representative of three independent experiments. Asterisks denote statistically significant differences (*p<0.05; **p<0.01).
(§4) Total cell lysates were obtained and separated by SDS-PAGE. Briefly, cells were solubilized with lysis buffer containing 50mM HEPES, 150mM NaCl, 10mM EDTA, 10mM Na4P2O7, 2mM sodium orthovanadate, 50mM NaF, 1mM phenylmethylsulfonyl fluoride, 10μg/ml aprotinin, 10μg/ml leupeptin, pH 7.4, and 1% (v/v) Triton X-100. Lysates were clarified by centrifugation at 12,000g for 20 minutes at 4°C. The protein concentrations in the cell lysates were measured using a Bio-Rad DC (detergent compatible) assay. Immunoprecipitation and Western blot analysis have been performed as previously described.

L6 cells [4] = assay: Glycogen content in L6 cells; type: cell-based, rat; conditions: insulin 100nM, mean of three experiments
Method: (§5) Figure 6 Effect of Prep1(54-72) peptide on glycogen content and 2-DG uptake L6 control and Prep1 overexpressing cells were stimulated with Insulin (100nM) and/or C2cer (10μM) and incubated with Prep1(54-72). (A) Glycogen content and (B) 2-DG uptake were measured as described in methods. Bars represent the mean ± SD of three independent experiments. Asterisks denote statistically significant differences (*p<0.05; **p<0.01; ***p<0.001).
(§6) Glycogen was isolated from L6 cells homogenized in 0.1% SDS, saturated with Na2SO4 for 30 minutes at 37°C, followed by ethanol (EtOH) precipitation. Glycogen content was determined as previously described. 2-DG uptake by the L6 cells was measured as previously reported.

L6 cells [5] = assay: 2-DG uptake in L6 cells; type: cell-based, rat; conditions: insulin 100nM, mean of three experiments
Method: as §5, §6

[6] = test system: IR tyrosine phosphorylation; assay: IR tyrosine phosphorylation, immunoprecipitation and Western blot; type: cell-based, rat; conditions: L6 cells, insulin 100nM
Method: as §3, §4

His6-tagged p160(20-160) = target: T3, His6-tagged p160(20-160) (UniProt Q7TPV4 20-160); assay: ELISA; ELISA-like direct binding: 96-well plate coated with p160(20-160) (0.1 uM); biotinylated peptides at several concentrations added in triplicate; detection with streptavidin-HRP; one-site binding fit (GraphPad Prism); conditions: both partners purified
T3 construct: also called His6-p160(20-160); p160(20-160) domain
T3 sequence (looked up): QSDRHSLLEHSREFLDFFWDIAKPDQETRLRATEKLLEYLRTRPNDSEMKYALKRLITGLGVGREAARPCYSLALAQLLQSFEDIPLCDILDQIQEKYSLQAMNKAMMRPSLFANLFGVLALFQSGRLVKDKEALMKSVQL

Cc1ccc(NCCCc2ccccc2)c(N)c1 [JSH-23]
effect on C2cer-induced Prep1 mRNA expression (Prep1 mRNA): reverts the effect of C2cer

C[C@@H]1C[C@@H]([C@H](O)CC2CC(=O)NC(=O)C2)C(=O)[C@@H](C)C1 [cycloheximide (CHX), cycloheximide]
reduction of p160 cellular levels [1]: 50%

Ac-RHPLFPLLALLFEK-NH2 [Prep1(59-72)]
IC50, inhibition of p160_20-160/Prep1_45-155 binding [2]: did not converge to a meaningful value | Kd (p160_20-160): 1250 nM

insulin: insulin used at 100nM to stimulate L6 cells
stimulation of IRS1 tyrosine phosphorylation [3]: 1.1 fold | stimulation of glycogen synthesis (L6 cells [4]): 1.3 fold | stimulation of glucose uptake (2-DG) (L6 cells [5]): 2.1 fold | stimulation of IR tyrosine phosphorylation [6]: 1.5 fold

B1: N-terminally biotinylated Prep1(54-72) peptide (peptide)
peptide: Biotin-KQAIYRHPLFPLLALLFEK
notes: Prep1 (Pbx regulating protein 1), stretch of the HR1 domain, named residues 54-72; source: synthetic peptide (Fmoc solid phase, RP-HPLC purified), biotin labelled
Kd (His6-tagged p160(20-160)): 180 ± 40 nM

B2: N-terminally biotinylated Prep1(59-72) peptide (peptide)
peptide: Biotin-RHPLFPLLALLFEK
notes: Prep1 (Pbx regulating protein 1), stretch of the HR1 domain, named residues 59-72; source: synthetic peptide (Fmoc solid phase, RP-HPLC purified), biotin labelled
Kd (His6-tagged p160(20-160)): 1250 ± 80 nM
